# Test results from patent US6673938B1, “Substituted pyridine herbicides” (Syngenta Participations AG, priority 1998, dated 2004).
# What was measured:
# [1] = tested on: Monocotyledonous and dicotyledonous test plants; experiment: Herbicidal action before emergence of the plants (pre-emergence action); type: in vivo; settings: evaluated after 3 weeks, nine-step scale; for pre-emergence action, Cyperus / pre-emergence action, Ipomoea / pre-emergence action, Setaria / pre-emergence action, Sinapis / pre-emergence action, Solanum / pre-emergence action, Stellaria: 2000 g/ha
# Outline: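 Sprayed onto soil immediately after sowing as WP suspension or EC emulsion at 2 kg or 250 g a.i./ha (500 l water/ha). Greenhouse growth for 3 weeks, then scored on a nine-step scale (1 = complete damage, 9 = no effect).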
# [2] = tested on: Monocotyledonous and dicotyledonous test plants; experiment: Post-emergence herbicidal action; type: in vivo; settings: evaluated after approximately 18 days; for Post-emergence action, Ipomoea / Post-emergence action, Lolium / Post-emergence action, Setaria / Post-emergence action, Sinapis / Post-emergence action, Solanum / Post-emergence action, Stellaria: 2000 g/ha, sprayed in 4- to 6-leaf stage, nine-step scale
# Outline: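 Scoring uses a 1–9 scale (1 complete damage, 9 no effect), read roughly 18 days post-application. Compounds were applied post-emergence at 4–6 leaves, as aqueous suspension (25% wettable powder) or emulsion (25% emulsion concentrate), at 250 g or 2 kg a.i./ha in 500 l water/ha.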
SMILES,"pre-emergence action, Cyperus [1]","pre-emergence action, Ipomoea [1]","pre-emergence action, Setaria [1]","pre-emergence action, Sinapis [1]","pre-emergence action, Solanum [1]","pre-emergence action, Stellaria [1]","Post-emergence action, Ipomoea [2]","Post-emergence action, Lolium [2]","Post-emergence action, Setaria [2]","Post-emergence action, Sinapis [2]","Post-emergence action, Solanum [2]","Post-emergence action, Stellaria [2]",also measured
Cc1nc(C(F)(F)F)ccc1C(=O)C1=C(O)C(C)(S(C)(=O)=O)C2CC2C1=O (stereo not shown) [Compound A2-D115],3,3,2,2,2,3,1,2,1,1,1,1,–
"Cc1c(C(=O)C2=C(Cl)C(C)(C)C(=O)C(C)(C)C2=O)ccc(C(F)(F)F)[n+]1[O-] [Compound A1210-B1105, 5-Chloro-2,2,6,6-tetramethyl-4-(2-methyl-1-oxy-6-trifluoromethylpyridine-3-carbonyl)cyclohex-4-ene-1,3-dione]",–,–,–,–,–,–,–,–,–,–,–,–,"Pre-emergence action, Abutilon ([1]; Abutilon, 250 g/ha): 1; Pre-emergence action, Amaranthus ([1]; Amaranthus, 250 g/ha): 4; Pre-emergence action, Chenop. ([1]; Chenop., 250 g/ha): 1; Pre-emergence action, Digitaria ([1]; Digitaria, 250 g/ha): 3; Pre-emergence action, Echino. ([1]; Echino., 250 g/ha): 2; Pre-emergence action, Panicum ([1]; Panicum, 250 g/ha): 2; Post-emergence action: Abutilon (score, nine-step scale) ([2]; Abutilon, 250 g/ha, sprayed at 4- to 6-leaf stage): 2; Post-emergence action: Chenop. (score, nine-step scale) ([2]; Chenop., 250 g/ha, sprayed at 4- to 6-leaf stage): 1; Post-emergence action: Digitaria (score, nine-step scale) ([2]; Digitaria, 250 g/ha, sprayed at 4- to 6-leaf stage): 2; Post-emergence action: Echino. (score, nine-step scale) ([2]; Echino., 250 g/ha, sprayed at 4- to 6-leaf stage): 3; Post-emergence action: Ipopur. (score, nine-step scale) ([2]; Ipopur., 250 g/ha, sprayed at 4- to 6-leaf stage): 2; Post-emergence action: Panicum (score, nine-step scale) ([2]; Panicum, 250 g/ha, sprayed at 4- to 6-leaf stage): 1; Post-emergence action: Xanth. (score, nine-step scale) ([2]; Xanth., 250 g/ha, sprayed at 4- to 6-leaf stage): 2"
COC(=O)C1(C)CCC(=O)C(C(=O)c2ccc(C(F)(F)F)nc2C)=C1O (stereo not shown) [Compound A2-B34],1,3,2,2,1,2,1,3,2,1,1,2,–
CCc1nc(C(F)(F)F)ccc1C(=O)C1=C(O)C(C)(C)CCC1=O [Compound A3-B24],1,3,2,2,1,2,2,2,2,1,2,2,–
Cc1nc(C(F)(F)C(F)(F)C(F)(F)F)ccc1C(=O)C1=C(O)C(C)(C)CCC1=O [Compound A64-B24],4,4,2,2,1,2,2,2,4,1,2,2,–
"COC1CC(C)C(=O)C(C(=O)c2ccc(C(F)(F)F)nc2C)=C1O (stereo not shown) [Compound A2-B1070, 3-Hydroxy-4-methoxy-6-methyl-2-(2-methyl-6-trifluoromethyl-pyridine-3-carbonyl)cyclohex-2-enone]",2,3,3,2,2,2,2,4,2,2,2,2,–
